In ChEMBL document CHEMBL4334531, “Kalshinoids A-F, Anti-inflammatory Sesquiterpenes from Kalimeris shimadae” (J Nat Prod, 2019):
Activity calls are given as the source filed them. The rule behind the calls is not given here.

Experiments:
THP-1 [1] = experiment: Antiinflammatory activity against human THP1 cells assessed as inhibition of LPS-induced TNFalpha production by measuring TFNalpha level at 5 uM preincubated for 4 hrs followed by LPS challenge and measured after 24 hrs incubation by ELISA; format: functional
THP-1 [2] = experiment: Antiinflammatory activity against human THP1 cells assessed as inhibition of LPS-induced TNFalpha production by measuring TFNalpha level at 10 uM preincubated for 4 hrs followed by LPS challenge and measured after 24 hrs incubation by ELISA; format: functional
THP-1 [3] = experiment: Cytotoxicity against human THP1 cells assessed as reduction in cell viability after 72 hrs by SRB assay; format: cell-based; settings: THP-1, 72 h
[4] = Cytotoxicity against human THP1 cells assessed as cell viability at 40 uM after 72 hrs by SRB assay relative to control; format: cell-based; settings: THP-1 cells, read-out: Activity
THP-1 [5] = experiment: Antiinflammatory activity against human THP1 cells assessed as inhibition of LPS-induced TNFalpha production preincubated for 4 hrs followed by LPS challenge and measured after 24 hrs incubation by ELISA; format: functional, cell-based
THP-1 [6] = experiment: Antiinflammatory activity against human THP1 cells assessed as inhibition of LPS-induced TNFalpha production at 200 uM preincubated for 4 hrs followed by LPS challenge and measured after 24 hrs incubation by ELISA; format: functional, cell-based

Question: Which results are given for COC(C)(C)C1=CC[C@@](C)(O)[C@H]2CC[C@](C)(O)[C@H]2C1?
Answer: Activity (THP-1 [1]): 801.6 pg/mL; Activity (THP-1 [2]): 722.2 pg/mL; IC50 (THP-1 [3]): > 40 µM; viability at 72 h, 40 µM [4]: > 80%; inhibition (THP-1 [5]): Dose-dependent effect

Question: Which Activity (THP-1 [1]) does the source give for C=C1CC[C@@H](O)[C@]2(C)CC[C@@](O)(C(C)(C)O)C[C@@H]12 here?
Answer: 394.3 pg/mL

Question: What about the Activity (THP-1 [2]) of the same compound?
Answer: 328.9 pg/mL

Question: And the IC50 (THP-1 [3])?
Answer: > 40 µM

Question: What about the viability at 72 h, 40 µM [4] of the same compound?
Answer: > 80%

Question: What about the inhibition (THP-1 [5]) of the same compound?
Answer: Dose-dependent effect

Question: With C[C@@H]1C[C@H]2[C@@H]3CCC4=CC(=O)C=C[C@]4(C)[C@@]3(F)[C@@H](O)C[C@]2(C)[C@@]1(O)C(=O)CO as the compound, how does the inhibition (THP-1 [6]) read?
Answer: Active

Question: What does the source list for CC(C)(O)C1=CC[C@@](C)(O)[C@H]2CC[C@@](C)(O)[C@H]2C1?
Answer: Activity (THP-1 [1]): 699.2 pg/mL; Activity (THP-1 [2]): 241.7 pg/mL; IC50 (THP-1 [3]): > 40 µM; viability at 72 h, 40 µM [4]: > 80%; inhibition (THP-1 [5]): Dose-dependent effect
